Measured values reported in patent US9120749B2, “Quinoline derivatives and MELK inhibitors containing the same” (ONCOTHERAPY SCIENCE, INC., priority 2010, dated 2015).
Where a name gives a salt, the structure may show the parent alone. Read-outs that look alike come from different tables or passages of the source.

Legend:
[1] = target: MELK (Homo sapiens, UniProt Q14680); test: Kinase assay: MELK activity, phosphorylation of FITC-labeled histone H3 peptide measured by IMAP fluorescence polarization; type: biochemical; conditions: read-out: IC50 (μM) (kinase assay)
Outline: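 Substrate is FITC-labeled histone H3 peptide. Compounds come from a 12.5 mM DMSO stock, diluted so assay DMSO is 1%. The stop step adds threefold-volume progressive binding solution, followed by 0.5 h at room temperature and an FP read.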

[2] = system: HT-1197 cells; test: Cell-based assay: anti-proliferative activity, Cell Counting Kit-8, 72 hours (HT-1197, negative control without MELK expression); conditions: 72 hours
Outline: (§1)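 IC50 values come from CCK-8 growth measurements taken 72 hours post-treatment of plated cells with test compounds. Expression of MELK across the panel was assessed through immunoblot of unfractionated lysates.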

[3] = system: A549 cells; test: Cell-based assay: anti-proliferative activity, Cell Counting Kit-8, 72 hours (A549); conditions: 72 hours
Outline: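 Cell Counting Kit-8 read-out of A549 growth after 72 hours of inhibitor exposure, cells plated in 96-well format. Values reported as IC50.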

[4] = system: DU4475 cells; test: Cell-based assay: anti-proliferative activity, Cell Counting Kit-8, 72 hours (DU4475); conditions: Homo sapiens, DU-4475, 72 h
[5] = system: T47D cells; test: Cell-based assay: anti-proliferative activity, Cell Counting Kit-8, 72 hours (T47D)
Outline: as §1

[6] = system: DU4475 cells; test: Cell-based assay: anti-proliferative activity, Cell Counting Kit-8, 72 hours (DU4475)
[7] = Homo sapiens, HT1197, 72 h, HT1197 cells (negative control, no MELK expression)
[8] = Homo sapiens, HT1197, 72 h, HT1197 cells (negative control)

Sequence of MELK (Q14680 whole entry, looked up): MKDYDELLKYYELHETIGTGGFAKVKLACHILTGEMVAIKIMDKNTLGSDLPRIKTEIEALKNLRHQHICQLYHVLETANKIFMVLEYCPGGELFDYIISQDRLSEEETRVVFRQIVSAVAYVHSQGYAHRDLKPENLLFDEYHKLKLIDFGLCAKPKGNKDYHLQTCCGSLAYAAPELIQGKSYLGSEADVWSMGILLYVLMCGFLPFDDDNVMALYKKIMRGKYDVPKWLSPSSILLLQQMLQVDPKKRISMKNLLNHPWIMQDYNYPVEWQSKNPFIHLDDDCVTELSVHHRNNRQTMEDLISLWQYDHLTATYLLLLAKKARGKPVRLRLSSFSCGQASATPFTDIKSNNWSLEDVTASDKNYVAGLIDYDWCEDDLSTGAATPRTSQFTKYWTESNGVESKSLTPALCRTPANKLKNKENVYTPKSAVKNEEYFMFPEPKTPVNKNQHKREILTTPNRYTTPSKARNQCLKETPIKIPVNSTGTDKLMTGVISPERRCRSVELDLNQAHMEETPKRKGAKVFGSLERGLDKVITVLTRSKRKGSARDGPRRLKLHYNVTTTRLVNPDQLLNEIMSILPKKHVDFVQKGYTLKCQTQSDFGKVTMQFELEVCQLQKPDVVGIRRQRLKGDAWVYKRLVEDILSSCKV

| Structure (SMILES) | IC50 [1] [µM] | IC50 [2, 7] [µM] | IC50 ([3]; Homo sapiens, A549, 72 h) [µM] | IC50 [4] [µM] | IC50 ([5]; Homo sapiens, T47D, 72 h) [µM] | IC50 ([6]; hydrochloride) [µM] | IC50 ([1]; hydrochloride) [µM] | IC50 ([2]; HT1197 cells (negative control), hydrochloride) [µM] | IC50 ([3]; hydrochloride) [µM] | IC50 ([5]; 72 hours, hydrochloride) [µM] | IC50 ([6]; Homo sapiens, DU-4475, 72 h) [µM] | IC50 [2, 8] [µM] |
| --- | --- | --- | --- | --- | --- | --- | --- | --- | --- | --- | --- | --- |
| CCC(=O)c1cnc2ccc(-c3cc(F)c(O)c(Cl)c3)cc2c1N[C@H]1CC[C@H](N(C)C)CC1 [Example 757, 1-(6-(3-chloro-5-fluoro-4-hydroxyphenyl)-4-((trans-4-(dimethylamino)cyclohexyl)amino)quinolin-3-yl)propan-1-one] | 0.0062 | 0.76 | 0.15 | 0.069 | 0.064 |  |  |  |  |  |  |  |
| CCC(=O)c1cnc2ccc(-c3cc(Cl)c(O)c(OC)c3)cc2c1N[C@H]1CC[C@H](N(C)C)CC1 [Example 755] | 0.0018 | 3.4 | 0.34 | 0.21 | 0.35 |  |  |  |  |  |  |  |
| CC(=O)c1cnc2ccc(-c3cc(Cl)c(O)c(Cl)c3)cc2c1Nc1ccc(NCCN(C)C)nc1 [Example 758, 1-(6-(3,5-dichloro-4-hydroxyphenyl)-4-(6-(2-(dimethylamino)ethylamino)pyridin-3-ylamino)quinolin-3-yl)ethanone] | 0.0053 | 24 | 0.22 | 0.055 | 0.15 |  |  |  |  |  |  |  |
| CCC(=O)c1cnc2ccc(-c3cc(F)c(O)c(Cl)c3)cc2c1Nc1ccc(N2CCC(N)C2)nc1 (stereo not shown) [Example 760, 1-(4-(6-(3-aminopyrrolidin-1-yl)pyridin-3-ylamino)-6-(3-chloro-5-fluoro-4-hydroxyphenyl)quinolin-3-yl)propan-1-one] | 0.0034 | 0.77 | 0.031 | 0.016 | 0.0087 |  |  |  |  |  |  |  |
| CC(=O)c1cnc2ccc(-c3cc(F)c(O)c(Cl)c3)cc2c1Nc1ccc(NCCN(C)C)nc1 [Example 762, 1-(6-(3-chloro-5-fluoro-4-hydroxyphenyl)-4-(6-(2-(dimethylamino)ethylamino)pyridin-3-ylamino)quinolin-3-yl)ethanone] | 0.014 | 5.2 | 0.25 | 0.089 | 0.12 |  |  |  |  |  |  |  |
| O=C(c1cnc2ccc(-c3cc(Cl)c(O)c(Cl)c3)cc2c1N1CCC(CCN2CCCC2)CC1)C1CC1 [Example 756, cyclopropyl(6-(3,5-dichloro-4-hydroxyphenyl)-4-(4-(2-(pyrrolidin-1-yl)ethyl)piperidin-1-yl)quinolin-3-yl)methanone] |  | 10 | 0.54 | 0.27 | 0.5 |  |  |  |  |  |  |  |
| NC1CCN(c2ncc(Nc3c(C(=O)C4CC4)cnc4ccc(-c5cc(F)c(O)c(Cl)c5)cc34)cn2)C1 (stereo not shown) [Example 573, (4-(2-(3-aminopyrrolidin-1-yl)pyrimidin-5-ylamino)-6-(3-chloro-5-fluoro-4-hydroxyphenyl)quinolin-3-yl)(cyclopropyl)methanone hydrochloride] |  |  |  |  |  | 0.013 | 0.004 | 0.57 | 0.032 | 0.0072 |  |  |
| COc1cc(-c2ccc3ncc(C(=O)C4CC4)c(Nc4ccc(C(N)=O)cc4)c3c2)cc(Cl)c1O [Example 546, 4-(6-(3-chloro-4-hydroxy-5-methoxyphenyl)-3-(cyclopropanecarbonyl)quinolin-4-ylamino)benzamide] | 0.04 |  | 1 |  | 1.1 |  |  |  |  |  | 1 | 12 |
| Nc1ccc(Nc2c(C(=O)C3CC3)cnc3ccc(-c4cc(Cl)c(O)c(Cl)c4)cc23)cn1 [Example 590, (4-(6-aminopyridin-3-ylamino)-6-(3,5-dichloro-4-hydroxyphenyl)quinolin-3-yl)(cyclopropyl)methanone] | 0.014 |  | 0.48 |  | 0.48 |  |  |  |  |  | 0.19 | 2.2 |
| CCCC(=O)c1cnc2ccc(-c3cc(Cl)c(O)c(Cl)c3)cc2c1N[C@H]1CC[C@H](CN(C)C)CC1 [Example 605, 1-{6-(3,5-Dichloro-4-hydroxyphenyl)-4-[trans-4-((dimethylamino)methyl)cylohexylamino]quinolin-3-yl}butan-1-one] | 0.002 |  | 0.13 |  | 0.095 |  |  |  |  |  | 0.051 | 1.1 |
